The values that follow come from the Kinase Knowledgebase extract (Sharma et al. 2016).

Structures are written as SMILES. pIC50: −log10 of the molar value.

In general, pIC50 refers to the negative decadic logarithm of the IC50, by convention in mol/L.

The target in this assay is PIK3CA (human) (UniProt P42336). The assay can be described thus: Inhibition of PIK3CA Kinase Activity.
PIK3CA (human), sequence (P42336 whole entry, looked up): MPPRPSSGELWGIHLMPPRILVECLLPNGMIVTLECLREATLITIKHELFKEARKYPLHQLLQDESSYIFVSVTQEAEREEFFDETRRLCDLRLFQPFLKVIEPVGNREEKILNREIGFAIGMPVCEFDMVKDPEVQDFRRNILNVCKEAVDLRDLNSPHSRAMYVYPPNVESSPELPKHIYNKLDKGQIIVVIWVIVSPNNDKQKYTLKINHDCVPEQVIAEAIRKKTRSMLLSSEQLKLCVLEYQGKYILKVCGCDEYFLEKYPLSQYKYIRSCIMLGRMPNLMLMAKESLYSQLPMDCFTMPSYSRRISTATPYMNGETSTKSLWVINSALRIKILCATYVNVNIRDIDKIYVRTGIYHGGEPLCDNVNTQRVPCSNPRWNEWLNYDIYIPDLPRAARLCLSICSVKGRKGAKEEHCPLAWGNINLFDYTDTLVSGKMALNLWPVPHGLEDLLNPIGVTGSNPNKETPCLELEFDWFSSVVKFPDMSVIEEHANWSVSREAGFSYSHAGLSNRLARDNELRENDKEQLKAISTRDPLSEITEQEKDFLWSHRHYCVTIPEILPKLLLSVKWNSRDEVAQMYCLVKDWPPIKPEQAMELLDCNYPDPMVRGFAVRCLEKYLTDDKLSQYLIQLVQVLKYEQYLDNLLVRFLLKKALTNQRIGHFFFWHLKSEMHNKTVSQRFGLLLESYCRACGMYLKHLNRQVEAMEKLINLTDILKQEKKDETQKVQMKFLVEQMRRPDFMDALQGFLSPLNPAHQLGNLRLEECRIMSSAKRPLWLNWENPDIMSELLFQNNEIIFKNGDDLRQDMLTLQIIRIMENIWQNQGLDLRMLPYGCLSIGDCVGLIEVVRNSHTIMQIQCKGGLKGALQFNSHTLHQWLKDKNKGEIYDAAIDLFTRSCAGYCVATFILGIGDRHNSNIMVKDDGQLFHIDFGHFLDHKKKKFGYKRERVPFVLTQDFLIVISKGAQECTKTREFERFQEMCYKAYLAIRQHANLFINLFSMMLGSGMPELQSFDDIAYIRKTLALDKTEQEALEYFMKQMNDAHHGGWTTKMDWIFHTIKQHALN
The molecule `Cc1nc(N)nc(-n2c(Nc3ccc(NC(=O)c4ccc(OC(F)(F)F)cc4)cc3)nc3ccccc32)n1` gave a pIC50 of 5.59. To `CNc1nc(C)nc(-n2c(Nc3cc[nH]n3)nc3cc(C4=CCNCC4)ccc32)n1.CNc1nc(C)nc(-n2c(Nc3cc[nH]n3)nc3ccc(C4=CCNCC4)cc32)n1` belongs 5.37; to `COCCNc1nc(C)nc(-n2c(Nc3cc[nH]n3)nc3ccccc32)n1`, 5.34. For `CNc1nc(C)nc(-n2c(Nc3cc[nH]n3)nc3ccc(-c4cncnc4)cc32)n1` the value was 7.24; for `Cc1nc(NC2CCOCC2)nc(-n2c(Nc3cc[nH]n3)nc3ccccc32)n1`, 4.76.

For the molecule `Cc1nc(N)nc(-n2c(Nc3cccc4[nH]ncc34)nc3ccccc32)n1`, the pIC50 was 7.84.

`COc1ccc(-c2ccc3c(c2)nc(Nc2ccn[nH]2)n3-c2nc(C)nc(N)n2)cc1CO.COc1ccc(-c2ccc3nc(Nc4ccn[nH]4)n(-c4nc(C)nc(N)n4)c3c2)cc1CO` showed a pIC50 of 7.03. For `Cc1nc(N)nc(-n2c(Nc3n[nH]c4cccc(F)c34)nc3ccccc32)n1` the value was 5.56; for `Cc1nc(N)nc(-n2c(NC3CCOC3)nc3ccccc32)n1` (stereo unspecified), 5.42. For `Cc1nc(NC2CC2)nc(-n2c(Nc3ccn[nH]3)nc3ccccc32)n1` the value was 5.31; for `Cc1nc(NCCO)nc(-n2c(Nc3cc[nH]n3)nc3ccccc32)n1`, 5.14; for `CNc1nc(C)nc(-n2c(Nc3ccc(NC(C)=O)cc3)nc3ccccc32)n1`, 7.28. To `CCNC(=S)Nc1ccc(Nc2nc3ccccc3n2-c2nc(C)nc(N)n2)cc1` belongs 6.33; to `Cc1nc(NCCN2CCNCC2)nc(-n2c(Nc3cc[nH]n3)nc3ccccc32)n1`, 4.50. The molecule `Cc1nc(N)nc(-n2c(Nc3ccc(NC(=O)C4CCCC4)cc3)nc3ccccc32)n1` gave a pIC50 of 5.86. In the case of `Cc1nc(N)nc(-n2c(Nc3ccc(NS(=O)(=O)c4ccc(F)cc4)cc3)nc3ccccc32)n1`, the pIC50 is 5.87.
